Experiments:
[1] = system: CfVgRXR; experiment: Transactivation of reporter gene through switch 1.10 in 3T3 cells; assay type: cell-based, Choristoneura fumiferana; conditions: switch 1.10, pIND(SP1)LacZ
Method: (§1) This example was prepared in the same way as switch 1.9 except MmRXR (SEQ ID NO: 62) was deleted.
(§2) The cells were harvested and reporter activity was assayed.
(§3) The cells were plated when they reached 50% confluency.
(§4) Cells were harvested 24–48 hr after adding ligands. […] Twenty μl of lysate was assayed.

[2] = system: EcR/RXR receptor combinations; experiment: Truncated CfEcR and MmRXR receptor combinations, luciferase reporter in NIH3T3 cells; assay type: cell-based, Choristoneura fumiferana; Mus musculus; conditions: 0, 1, 5 or 25 uM ligand for 48 hr, FIGS. 11–14
Method: Briefly, polynucleotides encoding EcR or RXR receptors were truncated at the junctions of A/B, C, D, E and F domains and fused to either a GAL4 DNA binding domain encoding polynucleotide (SEQ ID NO: 43) for CfEcR, or a VP16 activation domain encoding polynucleotide (SEQ ID NO: 49) for MmRXR as described in Example 1. The resulting receptor truncation/fusion polypeptides were assayed in NIH3T3 cells. Plasmid pFRLUC (Stratagene) encoding a luciferase polypeptide was used as a reporter gene construct and pTKRL (Promega) encoding a Renilla luciferase polypeptide under the control of the constitutive TK promoter was used to normalize the transfections as described above. The analysis was performed in triplicates and mean luciferase counts were determined as described above. […]

[3] = system: GAL4CfEcRVP16; experiment: Transactivation of reporter gene through switch 1.6 in 293 cells; assay type: cell-based, Choristoneura fumiferana; conditions: switch 1.6, pGAL4RELuc
Method: This construct was prepared so that both the GAL4 DNABD and the VP16AD were placed on the same molecule. GAL4DNABD (SEQ ID NO: 43) and VP16AD (SEQ ID NO: 49) were fused to CfEcRDEF (SEQ ID NO: 3) at N-and C-termini respectively.
as §2
(§5) The same procedures described for CHO were followed for 293 cells except that the cells were plated in biocoated plates to avoid clumping.
as §4

[4] = system: GAL4EcR + VP16USP; experiment: Transactivation of reporter gene through switch 1.2 in 293 cells; assay type: cell-based, Choristoneura fumiferana; conditions: switch 1.2, pGAL4RELuc
Method: This construct was prepared in the same way as in switch 1.1 above except MmRXRDEF was replaced with the D, E and F domains from spruce budworm USP (“CfUSPDEF”; SEQ ID NO: 67). The constructs used in this example are similar to those disclosed in U.S. Pat. No. 5,880,333 except that Choristoneura fumiferana USP rather than Drosophila melanogaster USP was utilized.
as §2, §5, §4

[5] = system: GAL4RXR + VP16CfEcR; experiment: Transactivation of reporter gene through switch 1.3 in 293 cells; assay type: cell-based, Mus musculus; Choristoneura fumiferana; conditions: switch 1.3, pGAL4RELuc
Method: as §2, §5, §4

[6] = system: GAL4USP + VP16CfEcR; experiment: Transactivation of reporter gene through switch 1.5 in CV1 cells; assay type: cell-based, Choristoneura fumiferana; conditions: switch 1.5, pGAL4RELuc
Method: This construct was prepared in the same way as switch 1.3 except MmRXRDEF was replaced with CfUSPDEF (SEQ ID NO: 67).
as §2, §3
(§6) The same procedures described for NIH3T3 cells were followed for CV1 cells
as §4

[7] = system: CfVgRXR + MmRXR; experiment: Transactivation of reporter gene through switch 1.9 in CHO cells; assay type: cell-based, Choristoneura fumiferana; Mus musculus; conditions: switch 1.9, pIND(SP1)LacZ
Method: (§7) This example was prepared in the same way as switch 1.8 except DmEcR was replaced with a truncated CfEcR comprising a partial A/B domain and the complete CDEF domains [SEQ ID NO: 70 (polynucleotide) and SEQ ID NO: 71 (polypeptide)].
as §2, §4

[8] = biological target: DmVgRXR + MmRXR (Drosophila melanogaster, UniProt P34021, E282G/G283S/G286V); experiment: Transactivation of reporter gene through switch 1.8 in 3T3 cells; assay type: cell-based, Drosophila melanogaster; Mus musculus; conditions: switch 1.8, pIND(SP1)LacZ
[9] = system: GAL4RXR + VP16CfEcR; experiment: Transactivation of reporter gene through switch 1.3 in CV1 cells; assay type: cell-based, Mus musculus; Choristoneura fumiferana; conditions: switch 1.3, pGAL4RELuc
Method: as §2, §3, §6, §4

[10] = system: CfVgRXR + MmRXR; experiment: Transactivation of reporter gene through switch 1.9 in CV1 cells; assay type: cell-based, Choristoneura fumiferana; Mus musculus; conditions: switch 1.9, pIND(SP1)LacZ
Method: as §7, §2, §3, §6, §4

[11] = system: CfVgRXR + MmRXR; experiment: Transactivation of reporter gene through switch 1.9 in 3T3 cells; assay type: cell-based, Choristoneura fumiferana; Mus musculus; conditions: switch 1.9, pIND(SP1)LacZ
Method: as §7, §2, §3, §4

[12] = system: CfVgRXR; experiment: Transactivation of reporter gene through switch 1.10 in CHO cells; assay type: cell-based, Choristoneura fumiferana; conditions: switch 1.10, pIND(SP1)LacZ
Method: as §1, §2, §4

[13] = system: CfVgRXR; experiment: Transactivation of reporter gene through switch 1.10 in 293 cells; assay type: cell-based, Choristoneura fumiferana; conditions: switch 1.10, pIND(SP1)LacZ
Method: as §1, §2, §5, §4

Chain of DmVgRXR + MmRXR (P28700 whole entry, the tested form may be a part): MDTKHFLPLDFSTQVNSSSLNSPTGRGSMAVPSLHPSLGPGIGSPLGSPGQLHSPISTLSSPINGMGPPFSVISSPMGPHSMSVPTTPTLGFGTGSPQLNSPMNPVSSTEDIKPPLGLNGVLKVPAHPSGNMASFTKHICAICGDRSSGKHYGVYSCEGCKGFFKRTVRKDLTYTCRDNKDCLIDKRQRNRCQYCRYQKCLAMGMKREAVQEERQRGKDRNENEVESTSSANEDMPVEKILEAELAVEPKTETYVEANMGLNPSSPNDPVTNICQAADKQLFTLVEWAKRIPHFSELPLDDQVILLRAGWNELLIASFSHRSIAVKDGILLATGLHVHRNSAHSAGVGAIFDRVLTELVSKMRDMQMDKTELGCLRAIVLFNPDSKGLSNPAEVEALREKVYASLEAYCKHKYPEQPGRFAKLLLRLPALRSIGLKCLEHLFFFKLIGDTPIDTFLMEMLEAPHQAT
Chain of DmVgRXR + MmRXR (P34021 whole entry E282G/G283S/G286V, the tested form may be a part): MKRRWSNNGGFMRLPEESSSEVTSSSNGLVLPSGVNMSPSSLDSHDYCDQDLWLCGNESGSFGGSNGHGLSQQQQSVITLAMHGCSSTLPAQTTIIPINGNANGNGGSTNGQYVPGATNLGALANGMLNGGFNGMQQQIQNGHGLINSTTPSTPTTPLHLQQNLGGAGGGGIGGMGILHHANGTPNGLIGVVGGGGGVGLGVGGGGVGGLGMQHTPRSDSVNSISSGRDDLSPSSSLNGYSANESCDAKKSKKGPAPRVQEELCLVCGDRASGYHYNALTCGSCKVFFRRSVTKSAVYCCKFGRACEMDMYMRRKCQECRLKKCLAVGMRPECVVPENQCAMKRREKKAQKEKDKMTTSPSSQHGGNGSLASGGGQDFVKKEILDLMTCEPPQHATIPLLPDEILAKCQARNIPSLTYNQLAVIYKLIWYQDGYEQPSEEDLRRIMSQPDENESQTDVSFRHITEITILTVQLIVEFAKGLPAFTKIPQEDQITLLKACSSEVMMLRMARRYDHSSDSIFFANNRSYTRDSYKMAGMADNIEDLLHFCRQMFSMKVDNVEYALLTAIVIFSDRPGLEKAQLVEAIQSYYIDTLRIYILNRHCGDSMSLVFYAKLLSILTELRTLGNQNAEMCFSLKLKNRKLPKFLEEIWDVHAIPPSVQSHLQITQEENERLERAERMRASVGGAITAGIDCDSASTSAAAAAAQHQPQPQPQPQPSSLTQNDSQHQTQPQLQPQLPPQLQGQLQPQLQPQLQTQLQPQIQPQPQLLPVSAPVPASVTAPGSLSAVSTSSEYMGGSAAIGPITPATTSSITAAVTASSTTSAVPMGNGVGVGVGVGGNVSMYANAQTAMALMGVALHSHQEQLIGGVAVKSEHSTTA

CCc1c(OC)cccc1C(=O)NN(C(=O)c1cc(C)cc(C)c1)C(C)(C)C [N-(2-ethyl-3-methoxybenzoyl)-N′-(3,5-dimethylbenzoyl)-N′-t-butylhydrazine]
Mean Fold Activation Through N-(2-ethyl-3-methoxybenzoyl)-N′-(3,5-dimethylbenzoyl)-N′-t-butylhydrazine [1]: 2 fold
Sensitivity of the EcR/RXR switch to the ligand [2]: much more sensitive
Mean Fold Activation Through N-(2-ethyl-3-methoxybenzoyl)-N′-(3,5-dimethylbenzoyl)-N′-t-butylhydrazine [3]: 3 fold
Mean Fold Activation Through N-(2-ethyl-3-methoxybenzoyl)-N′-(3,5-dimethylbenzoyl)-N′-t-butylhydrazine [4]: 2 fold
Mean Fold Activation Through N-(2-ethyl-3-methoxybenzoyl)-N′-(3,5-dimethylbenzoyl)-N′-t-butylhydrazine [5]: 17 fold
Mean Fold Activation Through N-(2-ethyl-3-methoxybenzoyl)-N′-(3,5-dimethylbenzoyl)-N′-t-butylhydrazine [6]: 3 fold
Mean Fold Activation with 50 μM N-(2-ethyl-3-methoxybenzoyl)-N′-(3,5-dimethylbenzoyl)-N′-t-butylhydrazine [7]: 27 fold
Mean Fold Activation Through N-(2-ethyl-3-methoxybenzoyl)-N′-(3,5-dimethylbenzoyl)-N′-t-butylhydrazine [8]: 21 fold
Mean Fold Activation Through N-(2-ethyl-3-methoxybenzoyl)-N′-(3,5-dimethylbenzoyl)-N′-t-butylhydrazine [9]: 25 fold
Mean Fold Activation Through N-(2-ethyl-3-methoxybenzoyl)-N′-(3,5-dimethylbenzoyl)-N′-t-butylhydrazine [10]: 7 fold
Mean Fold Activation Through N-(2-ethyl-3-methoxybenzoyl)-N′-(3,5-dimethylbenzoyl)-N′-t-butylhydrazine [11]: 19 fold
Mean Fold Activation with 50 μM N-(2-ethyl-3-methoxybenzoyl)-N′-(3,5-dimethylbenzoyl)-N′-t-butylhydrazine [12]: 29 fold
Mean Fold Activation Through N-(2-ethyl-3-methoxybenzoyl)-N′-(3,5-dimethylbenzoyl)-N′-t-butylhydrazine [13]: 3 fold

— patent US7091038B2, “Ecdysone receptor-based inducible gene expression system” (RheoGene, Inc., priority 2000, dated 2006)
